Measured values taken from patent US20040121008A1, “Process for producing sustained release preparation” (priority 2001, published 2004).

Experiment: Increase in solubility of Compound A in dichloromethane/methanol by addition of metal compound
Format: physicochemical
Details: solvent dichloromethane/methanol=7/3
Text: Increase in solubility of poorly water-soluble nonpeptidic physiologically active compound by addition of metal compound
An amount of a solvent (dichloromethane/methanol=7/3) which can dissolve 0.1 g of 2-ethoxy-1-[[2′-(1H-tetrazol-5-yl)biphenyl-4-yl]methyl]benzimidazole-7-carboxylic acid (hereinafter, abbreviated as Compound A) is shown in Table 1.

## CCOc1nc2cccc(C(=O)O)c2n1Cc1ccc(-c2ccccc2-c2nnn[nH]2)cc1 [Compound A, 2-ethoxy-1-[[2′-(1H-tetrazol-5-yl)biphenyl-4-yl]methyl]benzimidazole-7-carboxylic acid]
Magnesium acetate tetrahydrate 48.7 mg added
  Amount of solvent which can dissolve 0.1 g of Compound A: 0.5 mL
No metal compound added
  Amount of solvent which can dissolve 0.1 g of Compound A: 3 mL
Zinc acetate dihydrate 49.8 mg added
  Amount of solvent which can dissolve 0.1 g of Compound A: 0.5 mL
